{
  "source": "PubChem BioAssay AID1963970",
  "about": "(Molecular Pharmacology Branch, DTP, NCI, 2024)",
  "tested_on": "931267-113-T-J1-PDC multicell spheroid viability",
  "assay": "Anticancer human tumor 931267-113-T-J1-PDC patient-derived colon adenocarcinoma cell line growth inhibition [PI3K]",
  "conditions": "for viability, T/C: stronger effect = lower value",
  "source_text": "Combinatorial screen of targeted agents with the PI3K inhibitors inavolisib, alpelisib, duvelisib, and copanlisib in multi-cell type tumor spheroids\nA high-throughput screen of multi-cell type tumor spheroids was designed to identify active combinations of targeted small molecules and PI3K pathway inhibitors. Complex spheroids include a stromal component modeled by human endothelial cells (HUVEC) and fibroblasts modeled by human mesenchymal stem cells (MSCs). The concentration ranges selected for each drug and investigational agent were based upon clinically achievable concentrations if the clinical Cmax of the agent was known.\nCompounds. The drugs and investigational agents: inavolisib (NSC800729), alpelisib (NSC765974), duvelisib (NSC772469), copanlisib (NSC816437), ipatasertib (NSC767898), afuresertib (NSC778305), talazoparib (NSC767125), sapanisertib (NSC764658), selumetinib (NSC741078), tovorafenib (DAY101, NSC766906), vemurafenib (NSC761431), ravoxertinib (NSC781343), sotorasib (NSC818433), MRTX1133 (NSC 836407), abemaciclib (NSC 768073), palbociclib (NSC758247), venetoclax (NSC 766270), SY5609 (NSC837396), enzalutamide (NSC755605), and darolutamide (NSC825331), were obtained from the National Cancer Institute (NCI) Developmental Therapeutics Program Chemical Repository. The FDA-approved anticancer drug set is available from the NCI Developmental Therapeutics Program. […] The stock solutions were prepared in dimethyl sulfoxide (DMSO, Sigma-Aldrich, St. Louis, MO, cat. D2650) at 800-fold the tested concentration and stored at -70 degrees C prior to their use. All drugs and investigational agents were tested over a range starting from a high concentration at or near the clinical Cmax and decreasing in half-log increments. If the clinical Cmax for an agent had not been determined, the highest concentration tested was 10 microM.\nCell Culture. All cells were maintained in an incubator at 37 degrees C and 5% CO2 with 95% humidity. The PDC lines were cultured according to standard operating procedures established by the NCI PDMR (https://pdmr.cancer.gov/sops/default.htm). All PDCs were thawed and cultured in Matrigel-coated flasks prepared with a working solution of 1X Ham's F-12 nutrient mix, without supplementation (Invitrogen, Waltham, MA, cat. 11765054), 100 U/mL penicillin-streptomycin (Invitrogen, cat. 15140122), and 2.5% Matrigel (Corning Inc., Corning, NY, cat. 354248) for the first three passages. The 354836-022-R-J1-PDC, 475296-252-R-J1-PDC, and 997726-040-R-J2-PDC lines were cultured in 6A media, which includes advanced DMEM/F-12 (Thermo Fisher Scientific, cat. 12634028), 10 mM HEPES (Thermo Fisher Scientific, cat. 15630080), 1X GlutaMAX supplement (Thermo Fisher Scientific, cat. 35050061), 0.1 mg/mL primocin (InvivoGen, San Diego, CA, cat. ant-pm-2), 10% defined fetal bovine serum, heat inactivated (HyClone Laboratories Inc., Logan, UT, cat. SH30070.03HI), 50% L-WRN conditioned media (ATCC, cat. CRL-3276), 1.25 mM N-Acetyl-L-cysteine (Sigma-Aldrich, cat. A9165), 10 mM nicotinamide (Sigma-Aldrich, cat. N0636), 1X B-27 supplement (Thermo Fisher Scientific, cat. 17504044), 1X N-2 supplement (Thermo Fisher Scientific, cat. 17502048), and 10 microM Y-27632 dihydrochloride (Tocris Bioscience, Bristol, United Kingdom, cat. 1254). The 624824-186-R-J2-PDC line was cultured in 6C/Colon 1B media, which includes all 6A media components plus 50 ng/mL human EGF recombinant protein (Thermo Fisher Scientific, cat. PHG0311). […]",
  "note": "Several values for one entry are separate records, joined by “and”; a condition that tells them apart may be missing. Identical values can stand only once.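 Note: viability read 7 days after compound addition.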",
  "data": [
    {"smiles": "C#Cc1c(F)ccc2cc(O)cc(-c3ncc4c(N5CC6CCC(C5)N6)nc(OCC56CCCN5CC(F)C6)nc4c3F)c12", "note": "(stereo unspecified)", "values": [
      {"measurement": "viability, T/C", "setting": "compound 0.0316 µM", "result": "85% [middle of 4 runs]"},
      {"measurement": "viability, T/C", "setting": "compound 0.1 µM", "result": "71.4% [middle of 4 runs]"},
      {"measurement": "viability, T/C", "setting": "compound 0.316 µM", "result": "58.2% [middle of 4 runs]"},
      {"measurement": "viability, T/C", "setting": "compound 1 µM", "result": "44.2% [middle of 4 runs]"},
      {"measurement": "viability, T/C", "setting": "compound 3.16 µM", "result": "36.2% [middle of 4 runs]"},
      {"measurement": "viability, T/C", "setting": "compound 10 µM", "result": "24% and 25.4% and 23.7% (2×)"},
      {"measurement": "IC50", "setting": "curve of compound", "result": "670 nM [middle of 4 runs]"}
    ]},
    {"smiles": "Cn1ncc(Cl)c1-c1cc(C(=O)NC(CN)Cc2cccc(F)c2)sc1Cl", "note": "(stereo unspecified)", "values": [
      {"measurement": "viability, T/C", "setting": "compound 0.0316 µM", "result": "105% [middle of 4 runs]"},
      {"measurement": "viability, T/C", "setting": "compound 0.1 µM", "result": "98.2% [middle of 4 runs]"},
      {"measurement": "viability, T/C", "setting": "compound 0.316 µM", "result": "96.1% [middle of 4 runs]"},
      {"measurement": "viability, T/C", "setting": "compound 1 µM", "result": "87.7% [middle of 4 runs]"},
      {"measurement": "viability, T/C", "setting": "compound 3.16 µM", "result": "77.1% [middle of 4 runs]"},
      {"measurement": "viability, T/C", "setting": "compound 10 µM", "result": "39.5% [middle of 4 runs]"},
      {"measurement": "IC50", "setting": "curve of compound", "result": "7.22 µM [middle of 4 runs]"}
    ]},
    {"smiles": "CNC(=O)c1ccc(N2C(=S)N(c3ccc(C#N)c(C(F)(F)F)c3)C(=O)C2(C)C)cc1F", "note": "+ CC(Nc1ccc2c(c1)OCCn1cc(N3C(=O)OCC3C(F)F)nc1-2)C(N)=O", "values": [
      {"measurement": "IC50", "setting": "curve of first compound, second compound 0.00316 µM", "result": "> 10", "unit": "µM"},
      {"measurement": "IC50", "setting": "curve of first compound, second compound 0.01 µM", "result": "> 10", "unit": "µM"},
      {"measurement": "IC50", "setting": "curve of first compound, second compound 0.0316 µM", "result": "> 10", "unit": "µM"},
      {"measurement": "IC50", "setting": "curve of first compound, second compound 0.1 µM", "result": "> 10", "unit": "µM"},
      {"measurement": "IC50", "setting": "curve of first compound, second compound 0.316 µM", "result": "> 10", "unit": "µM"},
      {"measurement": "IC50", "setting": "curve of first compound, second compound 1 µM", "result": "> 10", "unit": "µM"},
      {"measurement": "viability, T/C", "setting": "second compound 0.00316 µM, first compound 0.0316 µM", "result": 99, "unit": "%"},
      {"measurement": "viability, T/C", "setting": "second compound 0.00316 µM, first compound 0.1 µM", "result": 102, "unit": "%"},
      {"measurement": "viability, T/C", "setting": "second compound 0.00316 µM, first compound 0.316 µM", "result": 85.9, "unit": "%"},
      {"measurement": "viability, T/C", "setting": "second compound 0.00316 µM, first compound 1 µM", "result": 111, "unit": "%"},
      {"measurement": "viability, T/C", "setting": "second compound 0.00316 µM, first compound 3.16 µM", "result": 119, "unit": "%"},
      {"measurement": "viability, T/C", "setting": "second compound 0.00316 µM, first compound 10 µM", "result": 106, "unit": "%"},
      {"measurement": "viability, T/C", "setting": "second compound 0.01 µM, first compound 0.0316 µM", "result": 107, "unit": "%"},
      {"measurement": "viability, T/C", "setting": "second compound 0.01 µM, first compound 0.1 µM", "result": 93.2, "unit": "%"},
      {"measurement": "viability, T/C", "setting": "second compound 0.01 µM, first compound 0.316 µM", "result": 107, "unit": "%"},
      {"measurement": "viability, T/C", "setting": "second compound 0.01 µM, first compound 1 µM", "result": 106, "unit": "%"},
      {"measurement": "viability, T/C", "setting": "second compound 0.01 µM, first compound 3.16 µM", "result": 99.8, "unit": "%"},
      {"measurement": "viability, T/C", "setting": "second compound 0.01 µM, first compound 10 µM", "result": 109, "unit": "%"},
      {"measurement": "viability, T/C", "setting": "second compound 0.0316 µM, first compound 0.0316 µM", "result": 97.2, "unit": "%"},
      {"measurement": "viability, T/C", "setting": "second compound 0.0316 µM, first compound 0.1 µM", "result": 90.2, "unit": "%"},
      {"measurement": "viability, T/C", "setting": "second compound 0.0316 µM, first compound 0.316 µM", "result": 96.4, "unit": "%"},
      {"measurement": "viability, T/C", "setting": "second compound 0.0316 µM, first compound 1 µM", "result": 90.1, "unit": "%"},
      {"measurement": "viability, T/C", "setting": "second compound 0.0316 µM, first compound 3.16 µM", "result": 95.1, "unit": "%"},
      {"measurement": "viability, T/C", "setting": "second compound 0.0316 µM, first compound 10 µM", "result": 87.6, "unit": "%"},
      {"measurement": "viability, T/C", "setting": "second compound 0.1 µM, first compound 0.0316 µM", "result": 98.4, "unit": "%"},
      {"measurement": "viability, T/C", "setting": "second compound 0.1 µM, first compound 0.1 µM", "result": 88.5, "unit": "%"},
      {"measurement": "viability, T/C", "setting": "second compound 0.1 µM, first compound 0.316 µM", "result": 92.2, "unit": "%"},
      {"measurement": "viability, T/C", "setting": "second compound 0.1 µM, first compound 1 µM", "result": 81.9, "unit": "%"},
      {"measurement": "viability, T/C", "setting": "second compound 0.1 µM, first compound 3.16 µM", "result": 91.9, "unit": "%"},
      {"measurement": "viability, T/C", "setting": "second compound 0.1 µM, first compound 10 µM", "result": 77.6, "unit": "%"},
      {"measurement": "viability, T/C", "setting": "second compound 0.316 µM, first compound 0.0316 µM", "result": 82, "unit": "%"},
      {"measurement": "viability, T/C", "setting": "second compound 0.316 µM, first compound 0.1 µM", "result": 78.9, "unit": "%"},
      {"measurement": "viability, T/C", "setting": "second compound 0.316 µM, first compound 0.316 µM", "result": 77, "unit": "%"},
      {"measurement": "viability, T/C", "setting": "second compound 0.316 µM, first compound 1 µM", "result": 76.1, "unit": "%"},
      {"measurement": "viability, T/C", "setting": "second compound 0.316 µM, first compound 3.16 µM", "result": 79.8, "unit": "%"},
      {"measurement": "viability, T/C", "setting": "second compound 0.316 µM, first compound 10 µM", "result": 70, "unit": "%"},
      {"measurement": "viability, T/C", "setting": "second compound 1 µM, first compound 0.0316 µM", "result": 76.3, "unit": "%"},
      {"measurement": "viability, T/C", "setting": "second compound 1 µM, first compound 0.1 µM", "result": 67.9, "unit": "%"},
      {"measurement": "viability, T/C", "setting": "second compound 1 µM, first compound 0.316 µM", "result": 75.5, "unit": "%"},
      {"measurement": "viability, T/C", "setting": "second compound 1 µM, first compound 1 µM", "result": 70, "unit": "%"},
      {"measurement": "viability, T/C", "setting": "second compound 1 µM, first compound 3.16 µM", "result": 71.2, "unit": "%"},
      {"measurement": "viability, T/C", "setting": "second compound 1 µM, first compound 10 µM", "result": 54.7, "unit": "%"}
    ]}
  ]
}
